Columns and labels:
[1] = test system: HLA-E; assay: HLA-E surface stabilization assay with RMA-S/HLA-E cells; assay type: cell-based, human; settings: peptide 3-300 µM (Fig. 3: 30 µM) in OptiMEM, 16 h, 37 °C, anti-HLA-E 3D12, flow cytometry, n = 4 replicate experiments
[2] = test system: NKG2A+/NKG2C- NK cells; assay: NK cell activation assay with peptide-pulsed K562/HLA-E cells, NKG2A+/NKG2C- NK cells; assay type: cell-based, human; settings: K562/HLA-E target cells, 300 µM peptide ([…] µM BFAR263-271), E:T 2:1, 6 h; degranulation (CD107a), IFN-γ, TNF, CCL3; flow cytometry
[3] = test system: CD94/NKG2C; assay: Steady-state SPR of peptide-HLA-E single chain trimers with CD94/NKG2C; assay type: binding, human; settings: from Figure 5C KD values, stated in author rebuttal
Protocol: Specifically, we measured CD94/NKG2A and CD94/NKG2C affinity for HLA-E complexed with three sets of peptides. […] Third, we included […] peptide as a positive control.
Steady-state surface plasmon resonance experiments were performed with a Biacore T200 instrument. CD94/NKG2x in HBS-EP+ buffer was injected as analyte in a concentration range of 0.1 μM to 102.4 μM and flow rate of 10 μL/min at 25 °C. Data was fit with Prism 9.4 (GraphPad Software Inc; San Diego CA) to a “one site, specific binding” model. Sensorgrams are included in Supplemental Fig. 13.
For investigating WN peptides, biotinylated pMHC was immobilized at approximately 400 Response Units (RU) on a Series S SA sensor chip (Cytiva). […] CD94/NKG2A was injected followed by CD94/NKG2C.
For investigating human-derived peptides, Series S CM5 chips (Cytiva) were coupled to neutravidin and utilized. Biotinylated pMHC was immobilized at approximately 400 RU. On one chip, […] CD94/NKG2A was injected followed by CD94/NKG2C. On a second chip, PISD55-63 HLA-E SCT, AKAP6_388-396 HLA-E SCT, GTF3C5_293-301 HLA-E SCT, and reference HLA-DR401 were immobilized. CD94/NKG2C was injected followed by CD94/NKG2A. Rmax, fit values were calculated by Biacore software. Rmax, theoretical values were calculated using the analyte/ligand mass ratio (0.66) multiplied by the amount of ligand coupled to the chip.

| Sequence | stabilization of HLA-E surface expression [1] | inhibitory effects on NKG2A+ cells [2] | weaker affinity of CD94/NKG2C compared to CD94/NKG2A [3] | weaker affinity of CD94/NKG2C compared to CD94/NKG2A ([3]; listed as VL9) |
| --- | --- | --- | --- | --- |
| VNPGRSLFL [BFAR263-271, human peptide from Bifunctional apoptosis regulator] | weak but detectable stabilization | minimal inhibitory effects | – | – |
| VMAPRTLFL [positive control] | – | – | ~ 3 fold | ~ 2.7 fold |
